The target of test [1] is T1, Nociceptin receptor (Homo sapiens, UniProt P41146). Put plainly: Agonist activity at human NOP receptor expressed in CHO cells assessed as stimulation of [35S]GTPgammaS binding. In kind it is functional, cell-based.
Test [2] has as its target T1, Nociceptin receptor. Description: Displacement of [3H]N/OFQ from human NOP receptor expressed in CHO cells. In kind it is cell-based.
The target in test [3] is T1, Nociceptin receptor. Put plainly: Agonist activity at human NOP receptor expressed in CHO cells assessed as stimulation of [35S]GTPgammaS binding relative to nociceptin/orphanin FQ (1-13)NH2 peptide. In kind it is functional, cell-based.
Test [4] has as its target T1, Nociceptin receptor. Description: Binding affinity to human NOP receptor.
In test [5] the target is T1, Nociceptin receptor. Description: Agonist activity at human NOP receptor by [35S]GTPgammaS binding assay. In kind it is functional.

These results are taken from ChEMBL document CHEMBL1155862, “High affinity conformationally constrained nociceptin/orphanin FQ(1-13) amide analogues” (J Med Chem, 2008).

Peptide text beside a SMILES is read from it.

T1 sequence (P41146 whole entry): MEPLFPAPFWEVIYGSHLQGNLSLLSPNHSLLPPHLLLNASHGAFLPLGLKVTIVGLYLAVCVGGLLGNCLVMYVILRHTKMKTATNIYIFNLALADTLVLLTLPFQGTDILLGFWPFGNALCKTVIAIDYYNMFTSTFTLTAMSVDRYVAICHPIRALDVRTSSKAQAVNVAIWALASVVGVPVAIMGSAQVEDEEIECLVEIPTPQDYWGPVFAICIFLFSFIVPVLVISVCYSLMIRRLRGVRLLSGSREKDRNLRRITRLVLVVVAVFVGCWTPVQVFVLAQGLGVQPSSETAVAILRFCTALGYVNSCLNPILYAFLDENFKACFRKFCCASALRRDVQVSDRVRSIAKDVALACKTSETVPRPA

For the compound `C[C@H](NC(=O)[C@@H]1CCCCNC(=O)C[C@@H](NC(=O)CNC(=O)[C@@H](NC(=O)[C@H](Cc2ccccc2)NC(=O)CNC(=O)CNC(=O)[C@@H](N)Cc2ccccc2)[C@@H](C)O)C(=O)N[C@@H](CCCNC(=N)N)C(=O)N[C@@H](CCCCN)C(=O)N1)C(=O)N[C@@H](CCCNC(=N)N)C(=O)N[C@@H](CCCCN)C(N)=O`, the EC50 in test [1] stood at 1.6 nM. The compound also displayed a Ki in test [2] of 0.27 nM. The like results for `C[C@H](NC(=O)[C@H](CCCCN)NC(=O)[C@H](CCCCN)NC(=O)[C@H](CCCN=C(N)N)NC(=O)[C@@H](CC(=O)O)NC(=O)CNC(=O)[C@@H](NC(=O)[C@H](Cc1ccccc1)NC(=O)CNC(=O)CNC(=O)[C@@H](N)Cc1ccccc1)[C@@H](C)O)C(=O)N[C@@H](CCCN=C(N)N)C(=O)N[C@@H](CCCCN)C(N)=O` were, in that order, 106 nM and 1.79 nM. For `C[C@H](NC(=O)[C@@H]1CCCCNC(=O)C[C@H](NC(=O)CNC(=O)[C@@H](NC(=O)[C@H](Cc2ccccc2)NC(=O)CNC(=O)CNC(=O)[C@@H](N)Cc2ccccc2)[C@@H](C)O)C(=O)N[C@@H](CCCNC(=N)N)C(=O)N[C@@H](CCCCN)C(=O)N1)C(=O)N[C@@H](CCCNC(=N)N)C(=O)N[C@@H](CCCCN)C(N)=O`, the Activity in test [3] is 92%. On the same count and under the same terms, to `C[C@H](NC(=O)[C@H](CCCCN)NC(=O)[C@H](CCCCN)NC(=O)[C@H](CCCNC(=N)N)NC(=O)[C@@H](CC(=O)O)NC(=O)CNC(=O)[C@@H](NC(=O)[C@H](Cc1ccccc1)NC(=O)CNC(=O)CNC(=O)[C@@H](N)Cc1ccccc1)[C@@H](C)O)C(=O)N[C@@H](CCCNC(=N)N)C(=O)N[C@@H](CCCCN)C(N)=O` belongs 100%. Compound `C[C@H](NC(=O)[C@@H]1CSSC[C@H](NC(=O)[C@@H](NC(=O)[C@H](Cc2ccccc2)NC(=O)CNC(=O)CNC(=O)[C@@H](N)Cc2ccccc2)[C@@H](C)O)C(=O)N[C@@H](C)C(=O)N[C@@H](CCCNC(=N)N)C(=O)N[C@@H](CCCCN)C(=O)N1)C(=O)N[C@@H](CCCNC(=N)N)C(=O)N[C@@H](CCCCN)C(N)=O` (HELM PEPTIDE1{F.G.G.F.T.C.A.R.K.C.A.R.K.[am]}$PEPTIDE1,PEPTIDE1,6:R3-10:R3$$$V2.0) displayed a Ki in test [4] of 0.83 nM.

Regarding `C[C@H](NC(=O)[C@@H]1CCCCNC(=O)C[C@H](NC(=O)[C@@H](NC(=O)[C@H](Cc2ccccc2)NC(=O)CNC(=O)CNC(=O)[C@@H](N)Cc2ccccc2)[C@@H](C)O)C(=O)N[C@@H](C)C(=O)N[C@@H](CCCN=C(N)N)C(=O)N[C@@H](CCCCN)C(=O)N1)C(=O)N[C@@H](CCCN=C(N)N)C(=O)N[C@@H](CCCCN)C(N)=O` (HELM PEPTIDE1{F.G.G.F.T.D.A.R.K.K.A.R.K.[am]}$PEPTIDE1,PEPTIDE1,6:R3-10:R3$$$V2.0), the EC50 in test [1] turned out to be 4.12 nM. For the same compound, the affinity in test [2] corresponds to a Ki of 0.34 nM. For `C[C@H](NC(=O)[C@@H]1CCCCNC(=O)C[C@H](NC(=O)[C@@H](NC(=O)[C@H](Cc2ccccc2)NC(=O)CNC(=O)CNC(=O)[C@@H](N)Cc2ccccc2)[C@@H](C)O)C(=O)N[C@@H](C)C(=O)N[C@@H](CCCNC(=N)N)C(=O)N[C@@H](CCCCN)C(=O)N1)C(=O)N[C@@H](CCCNC(=N)N)C(=O)N[C@@H](CCCCN)C(N)=O` (HELM PEPTIDE1{F.G.G.F.T.D.A.R.K.K.A.R.K.[am]}$PEPTIDE1,PEPTIDE1,6:R3-10:R3$$$V2.0), the Activity in test [3] turned out to be 80%. `C[C@H](NC(=O)[C@@H]1CSSC[C@H](NC(=O)CNC(=O)[C@@H](NC(=O)[C@H](Cc2ccccc2)NC(=O)CNC(=O)CNC(=O)[C@@H](N)Cc2ccccc2)[C@@H](C)O)C(=O)N[C@@H](CCCN=C(N)N)C(=O)N[C@@H](CCCCN)C(=O)N1)C(=O)N[C@@H](CCCN=C(N)N)C(=O)N[C@@H](CCCCN)C(N)=O` (HELM PEPTIDE1{F.G.G.F.T.G.C.R.K.C.A.R.K.[am]}$PEPTIDE1,PEPTIDE1,7:R3-10:R3$$$V2.0): the affinity in test [4], expressed as Ki, was 0.1 nM. In test [5], the midpoint of the response, the EC50, lay at 0.69 nM. Regarding H-FGGFTDARKKARK-NH2, the half-maximal effective concentration (EC50) in test [1] stood at 22.3 nM. The Activity in test [3] came to 122%. Moreover, in test [2], the Ki was found to be 0.54 nM.
